From ChEMBL document CHEMBL3779777, “Novel amalgamation of phthalazine-quinolines as biofilm inhibitors: One-pot synthesis, biological evaluation and in silico ADME prediction with favorable metabolic fate” (Bioorg Med Chem Lett, 2016)
pIC50: −log10 of the molar value. Converted amounts (≈) assume the structure as drawn. The source made the active and inactive calls. No cut-off for these calls is given here.

Experiments:
[1] = tested on: Candida albicans; assay: Antibiofilm activity against Candida albicans after 24 hrs by MTT assay; type: functional, organism-based
[2] = tested on: Pseudomonas aeruginosa; assay: Antibacterial activity against Pseudomonas aeruginosa NCIM-2036 by standard agar method; type: functional
[3] = tested on: Bacillus subtilis; assay: Antibacterial activity against Bacillus subtilis NCIM-2063 by standard agar method; type: functional
[4] = tested on: Candida albicans; assay: Antifungal activity against Candida albicans NCIM-3471 by standard agar method; type: functional
[5] = tested on: Staphylococcus aureus; assay: Antibacterial activity against Staphylococcus aureus NCIM-2901 by standard agar method; type: functional
[6] = tested on: Pseudomonas aeruginosa; assay: Antibiofilm activity against Pseudomonas aeruginosa PAO1 after 18 hrs by crystal violet staining based spectroscopy; type: functional, organism-based; conditions: PAO1, 18 h
[7] = tested on: Pseudomonas aeruginosa; assay: Antibiofilm activity against Pseudomonas aeruginosa assessed as inhibition of biofilm formation after […] by Field emission scanning electron microscopy; type: functional, organism-based
[8] = tested on: Candida albicans; assay: Antibiofilm activity against Candida albicans assessed as inhibition of biofilm formation after […] by Field emission scanning electron microscopy; type: functional, organism-based

Row | Compound | pIC50 [1] | MIC [2] [µg/mL] | MIC [3] [µg/mL] | MIC [4] [µg/mL] | MIC [5] [µg/mL] | pIC50 [6] | inhibition [7] | inhibition [8]
1 | COc1ccc2nc(Cl)c(C3C4=C(CC(C)(C)CC4=O)n4c(=O)c5ccccc5c(=O)n43)cc2c1 (stereo not drawn) | 4.44 | 205 (≈ 420 µM) | 57.5 (≈ 118 µM) | 55 (≈ 113 µM) | 77.5 (≈ 159 µM) | 4.13 |  | 
2 | CC1(C)CC(=O)C2=C(C1)n1c(=O)c3ccccc3c(=O)n1C2c1cc2ccccc2n2nnnc12 (stereo not drawn) | 4.31 | 68.5 (≈ 147 µM) | 100 (≈ 215 µM) | 112 (≈ 242 µM) | 85 (≈ 183 µM) | 4.18 |  | 
3 | COc1ccc2c(c1)cc(C1C3=C(CC(C)(C)CC3=O)n3c(=O)c4ccccc4c(=O)n31)c1nnnn12 (stereo not drawn) | 4.09 | 67.5 (≈ 136 µM) | 188 (≈ 379 µM) | 195 (≈ 394 µM) | 225 (≈ 455 µM) | 4.33 |  | 
4 | Cc1cccc2cc(C3C4=C(CC(C)(C)CC4=O)n4c(=O)c5ccccc5c(=O)n43)c(Cl)nc12 (stereo not drawn) | 4.43 | 120 (≈ 254 µM) | 142 (≈ 302 µM) | 50 (≈ 106 µM) | 67.5 (≈ 143 µM) | 4.18 |  | 
5 | Cc1ccc2cc(C3C4=C(CC(C)(C)CC4=O)n4c(=O)c5ccccc5c(=O)n43)c3nnnn3c2c1 (stereo not drawn) | 4.17 | 102 (≈ 213 µM) | 158 (≈ 329 µM) | 55 (≈ 115 µM) | 112 (≈ 234 µM) | 4.29 |  | 
6 | COc1ccc2cc(C3C4=C(CC(C)(C)CC4=O)n4c(=O)c5ccccc5c(=O)n43)c3nnnn3c2c1 (stereo not drawn) | 4.36 | 250 (≈ 506 µM) | 168 (≈ 340 µM) | 220 (≈ 445 µM) | 195 (≈ 394 µM) | 4.14 |  | 
7 | OC(Cn1cncn1)(Cn1cncn1)c1ccc(F)cc1F [FLUCONAZOLE] | 4.40 |  |  | 50 (≈ 163 µM) |  |  |  | 
8 | Cc1ccc2cc(C3C4=C(CC(C)(C)CC4=O)n4c(=O)c5ccccc5c(=O)n43)c(Cl)nc2c1 (stereo not drawn) | 4.31 | 185 (≈ 392 µM) | 87.5 (≈ 185 µM) | 112 (≈ 238 µM) | 70 (≈ 148 µM) | 4.29 |  | 
9 | CC1(C)CC(=O)C2=C(C1)n1c(=O)c3ccccc3c(=O)n1C2c1cc2ccccc2nc1Cl (stereo not drawn) | 4.10 | 45 (≈ 98.3 µM) | 148 (≈ 324 µM) | 125 (≈ 273 µM) | 178 (≈ 390 µM) | 4.52 | Active | 
10 | COc1ccc2cc(C3C4=C(CC(C)(C)CC4=O)n4c(=O)c5ccccc5c(=O)n43)c(Cl)nc2c1 (stereo not drawn) | 4.46 | 110 (≈ 225 µM) | 98.5 (≈ 202 µM) | 57.5 (≈ 118 µM) | 102 (≈ 209 µM) | 4.23 |  | Active
11 | Cc1ccc2nc(Cl)c(C3C4=C(CC(C)(C)CC4=O)n4c(=O)c5ccccc5c(=O)n43)cc2c1 (stereo not drawn) | 4.29 | 150 (≈ 318 µM) | 158 (≈ 334 µM) | 175 (≈ 371 µM) | 77.5 (≈ 164 µM) | 4.33 |  | 
12 | Cc1ccc2c(c1)cc(C1C3=C(CC(C)(C)CC3=O)n3c(=O)c4ccccc4c(=O)n31)c1nnnn12 (stereo not drawn) | 4.15 | 67.5 (≈ 141 µM) | 158 (≈ 329 µM) | 67.5 (≈ 141 µM) | 225 (≈ 470 µM) | 4.19 |  | 
13 | O=C(O)c1cn(C2CC2)c2cc(N3CCNCC3)c(F)cc2c1=O [CIPROFLOXACIN] |  | 50 (≈ 151 µM) |  |  |  | 4.33 |  | 
14 | Cc1cccc2cc(C3C4=C(CC(C)(C)CC4=O)n4c(=O)c5ccccc5c(=O)n43)c3nnnn3c12 (stereo not drawn) | 4.21 | 84.5 (≈ 177 µM) | 170 (≈ 355 µM) | 175 (≈ 366 µM) | 91.5 (≈ 191 µM) | 4.21 |  | 
